Source: the RepoRT retention time repository (doi:10.1016/j.foodchem.2015.11.070)

Experiment: Thermo Scientific Hypersil GOLD aQ, 100 × 2.1 mm, 1.9 µm, 30 °C, 0.3 mL/min, estimated dead time 0.73 min; A: water + 0.01% formic acid + 4 mM ammonium formate; B: methanol + 0.01% formic acid + 4 mM ammonium formate; gradient (min/%B) 0/5 1/5 8/100 12/100
Conditions: stereoisomer not certain

`CCOP(=O)(NC(C)C)Oc1ccc(S(C)=O)c(C)c1` (centres undefined) and `CCOP(=O)(NC(C)C)Oc1ccc(SC)c(C)c1` (centres undefined) are within 1.5-fold of each other in LC retention time: 8.44 min for the first, 9.99 min for the second.

`COP(N)(=S)Oc1ccccc1C(=O)OC(C)C` (centres undefined) and `CNC(=O)Oc1ccccc1OC(C)C` are within 1.5-fold of each other in LC retention time: 9.04 min for the first, 8.36 min for the second.

`CCNC(=O)NC(=O)C(C#N)=NOC` and `CNC(=O)ON=C(C)C(C)S(C)(=O)=O` (centres undefined) are within 1.5-fold of each other in LC retention time: 8.63 min for the first, 7.37 min for the second.

`COC(=O)C(C)N(C(=O)c1ccco1)c1c(C)cccc1C` (centres undefined) and `COC(=O)C(C)N(C(=O)Cc1ccccc1)c1c(C)cccc1C` (centres undefined) are within 1.5-fold of each other in LC retention time: 9.38 min for the first, 10.2 min for the second.

`COP(=O)(OC)OC(C)=CC(=O)N(C)C` and `COP(=S)(OC)SCC(=O)N(C)C=O` are within 1.5-fold of each other in LC retention time: 6.63 min for the first, 8.06 min for the second.

`C=CCC1=C(C)C(OC(=O)C2C(C=C(C)C)C2(C)C)CC1=O` (centres undefined) and `C=CC=CCC1=C(C)C(OC(=O)C2C(C=C(C)C(=O)OC)C2(C)C)CC1=O` (centres undefined) are within 1.5-fold of each other in LC retention time: 10.8 min for the first, 10.3 min for the second.

`CCOc1cc(OP(=S)(OC)OC)nc(CC)n1` and `CCN(CC)c1nc(C)cc(OP(=S)(OC)OC)n1` are within 1.5-fold of each other in LC retention time: 10.2 min for the first, 10.3 min for the second.

`CCC(C)c1cc([N+](=O)[O-])cc([N+](=O)[O-])c1OC(=O)OC(C)C` (centres undefined) and `CCC(C)Nc1c([N+](=O)[O-])cc(C(C)(C)C)cc1[N+](=O)[O-]` (centres undefined) are within 1.5-fold of each other in LC retention time: 9.22 min for the first, 9.23 min for the second.

`COC(=O)Nc1cccc(OC(=O)Nc2cccc(C)c2)c1` and `CCOC(=O)Nc1cccc(OC(=O)Nc2ccccc2)c1` are the same in LC retention time: 9.23 min for the first, 9.23 min for the second.

`CC(C)(C)C(O)C(Oc1ccc(-c2ccccc2)cc1)n1cncn1` (centres undefined) and `CCOc1ccc(C(C)(C)COCc2cccc(Oc3ccccc3)c2)cc1` are within 1.5-fold of each other in LC retention time: 10.3 min for the first, 11.7 min for the second.

`c1ccc2[nH]c(-c3cscn3)nc2c1` and `Cc1cc(C)nc(Nc2ccccc2)n1` are within 1.5-fold of each other in LC retention time: 6.96 min for the first, 9.6 min for the second.

`CC(C)N1C(=O)c2ccccc2NS1(=O)=O` and `CC(C)OC(=O)Nc1ccccc1` are within 1.5-fold of each other in LC retention time: 8.26 min for the first, 8.61 min for the second.

`CN(C)c1nc(=O)n(C2CCCCC2)c(=O)n1C` and `CCSC(=O)N(CC)C1CCCCC1` are within 1.5-fold of each other in LC retention time: 8.61 min for the first, 10.6 min for the second.

`CCC1CCCC(OC2CCC(N(C)C)C(C)O2)C(C)C(=O)C2=CC3C(C=CC4CC(OC5OC(C)C(OC)C(OC)C5OC)CC43)C2CC(=O)O1` (centres undefined) and `C#CCOS(=O)OC1CCCCC1Oc1ccc(C(C)(C)C)cc1` (centres undefined) are within 1.5-fold of each other in LC retention time: 10.3 min for the first, 10.9 min for the second.

`CCOP(=S)(OCC)Oc1ccc([N+](=O)[O-])cc1` and `CCOP(=S)(OCC)Oc1ccc(S(C)=O)cc1` (centres undefined) are within 1.5-fold of each other in LC retention time: 9.21 min for the first, 9.1 min for the second.

`CON=C(C(=O)OC)c1ccccc1COc1ccccc1C` and `CCOC(=O)NCCOc1ccc(Oc2ccccc2)cc1` are within 1.5-fold of each other in LC retention time: 10.1 min for the first, 9.38 min for the second.

`CCCCN(CCCC)SN(C)C(=O)Oc1cccc2c1OC(C)(C)C2` and `CCCCOC(=O)N(C)SN(C)C(=O)Oc1cccc2c1OC(C)(C)C2` are within 1.5-fold of each other in LC retention time: 11.1 min for the first, 10.6 min for the second.

`CC(C)=CC1C(C(=O)OCN2C(=O)C3=C(CCCC3)C2=O)C1(C)C` (centres undefined) and `Cc1cc(C)c(C2=C(OC(=O)CC(C)(C)C)C3(CCCC3)OC2=O)c(C)c1` are within 1.5-fold of each other in LC retention time: 10.7 min for the first, 10.9 min for the second.

`COC(=O)NC(=S)Nc1ccccc1NC(=S)NC(=O)OC` and `CCS(=O)(=O)Cc1ccccc1OC(=O)NC` are within 1.5-fold of each other in LC retention time: 8.31 min for the first, 7 min for the second.

`CCCN(CCC)C(=O)SCc1ccccc1` and `CC(C)N(Cc1ccccc1)C(=O)C(C)(C)C` are within 1.5-fold of each other in LC retention time: 10.6 min for the first, 9.96 min for the second.

`CNC(=O)CSP(=S)(OC)OC` and `COP(=S)(OC)SCn1nnc2ccccc2c1=O` are within 1.5-fold of each other in LC retention time: 7.18 min for the first, 9.38 min for the second.

`CCSCc1ccccc1OC(=O)NC` and `CNC(=O)Oc1cccc2c1OC(C)(C)C2` are within 1.5-fold of each other in LC retention time: 8.76 min for the first, 8.41 min for the second.

`CCOP(=S)(OCC)SCCSCC` and `CCSCCSP(=O)(OC)OC` are within 1.5-fold of each other in LC retention time: 10.4 min for the first, 8.74 min for the second.

`COP(=S)(OC)Oc1ccc(SC)c(C)c1` and `COP(=S)(OC)Oc1ccc([N+](=O)[O-])cc1` are within 1.5-fold of each other in LC retention time: 10.2 min for the first, 9.96 min for the second.

`CCNc1nc(NC(C)C)nc(SC)n1` and `CNc1nc(NC(C)C)nc(SC)n1` are within 1.5-fold of each other in LC retention time: 9.18 min for the first, 8.62 min for the second.

`CSc1nnc(C(C)(C)C)c(=O)n1N` and `CCNc1nc(NC(C)(C)C)nc(SC)n1` are within 1.5-fold of each other in LC retention time: 8.41 min for the first, 9.65 min for the second.

`CCOP(=S)(OCC)OP(=S)(OCC)OCC` and `CCOC(=O)c1cn2nc(OP(=S)(OCC)OCC)cc2nc1C` are within 1.5-fold of each other in LC retention time: 10.1 min for the first, 10.4 min for the second.

`CCNc1nc(NC(C)(C)C)nc(OC)n1` and `CSc1nc(NC(C)C)nc(NC(C)C)n1` are within 1.5-fold of each other in LC retention time: 8.88 min for the first, 9.65 min for the second.

`CCCSP(=S)(OCC)Oc1ccc(SC)cc1` (centres undefined) and `CCOP(=S)(Oc1ccc(C#N)cc1)c1ccccc1` (centres undefined) are within 1.5-fold of each other in LC retention time: 11 min for the first, 8.72 min for the second.

Going from `c1ccc(Nc2ccccc2)cc1` to `CC#Cc1cc(C)nc(Nc2ccccc2)n1`, the LC retention time rises from 6.3 min to 10 min (1.6-fold).

`CCOP(=S)(OCC)Oc1cc(C)nc(C(C)C)n1` and `CCOP(=S)(OCC)Oc1cnc2ccccc2n1` are the same in LC retention time: 10.2 min for the first, 10.2 min for the second.

Going from `CNC(=O)ON=CC(C)(C)S(C)=O` (centres undefined) to `CNC(=O)ON=CC(C)(C)SC`, the LC retention time rises from 3.06 min to 7.89 min (2.6-fold).

`CCc1ccc(C(=O)NN(C(=O)c2cc(C)cc(C)c2)C(C)(C)C)cc1` and `CC(Cc1ccc(C(C)(C)C)cc1)CN1CCCCC1` (centres undefined) are within 1.5-fold of each other in LC retention time: 9.99 min for the first, 9.29 min for the second.

`CC(C)c1cc(Oc2ccccc2)cc(C(C)C)c1NC(=S)NC(C)(C)C` and `CC(COc1ccc(Oc2ccccc2)cc1)Oc1ccccn1` (centres undefined) are within 1.5-fold of each other in LC retention time: 11 min for the first, 10.9 min for the second.

`CCCC(=NOCC)C1=C(O)CC(C2CCCSC2)CC1=O` (centres undefined) and `COCC(=O)N(c1c(C)cccc1C)N1CCOC1=O` are within 1.5-fold of each other in LC retention time: 10.5 min for the first, 8.04 min for the second.

`CNC(=O)ON=CC(C)(C)S(C)(=O)=O` and `CNC(=O)ON=C(CSC)C(C)(C)C` are within 1.5-fold of each other in LC retention time: 7.37 min for the first, 8.21 min for the second.

Compared with `CCCOC(=O)NCCCN(C)C`, `CNC(=O)Oc1cccc(N=CN(C)C)c1` is 1.5-fold higher in LC retention time: 5.17 min for the first, 7.91 min for the second.

`CC(C)c1ccc(NC(=O)N(C)C)cc1` and `CNC(=O)Oc1cc(C)cc(C(C)C)c1` are within 1.5-fold of each other in LC retention time: 9.15 min for the first, 9.52 min for the second.

`CCS(=O)(=O)c1cccnc1S(=O)(=O)NC(=O)Nc1nc(OC)cc(OC)n1` and `COC(=O)c1sccc1S(=O)(=O)NC(=O)Nc1nc(C)nc(OC)n1` are within 1.5-fold of each other in LC retention time: 8.71 min for the first, 8.32 min for the second.

`CNC(=O)ON=C(C)C(C)SC` (centres undefined) and `CSC(C)=NOC(=O)N(C)SN(C)C(=O)ON=C(C)SC` are within 1.5-fold of each other in LC retention time: 7.89 min for the first, 8.88 min for the second.

Going from `Cc1cc(C2CC2)nc(Nc2ccccc2)n1` to `CC1=NNC(=O)N(N=Cc2cccnc2)C1`, the LC retention time falls from 10.3 min to 1.58 min (6.5-fold).

`CCCCOCCOCCOCc1cc2c(cc1CCC)OCO2` and `Cc1nc(N(C)C)nc(OC(=O)N(C)C)c1C` are within 1.5-fold of each other in LC retention time: 10.8 min for the first, 7.91 min for the second.
